The record followed here is article PMC10327353 (Breast Cancer Research : BCR, 2023).

The target in data set [1] is HER2 (Homo sapiens, UniProt P04626). Kind of data set: pHER2 MSD assay in BT474C1 cells. The settings on record: BT474C1, 4 hrs treatment. Type of data set: cell-based. Also noted: endogenous in cells; host or cells: BT474C1-Luci Mono1 (BT474 transfected with luciferase only). The method, then: (§1) A431 and BT474C1-Luci Mono1 cells were seeded in 96-well plates at 20,000 cells/well in DMEM medium containing 1% FBS. After overnight incubation, all cells were treated with compounds at a series of concentrations for 4 hrs. For A431 cell line, an extra stimulation with recombinant human EGF (100 ng/ml for 10 minutes) is applied to activate wild-type EGFR following compound treatment. pEGFR^Y1068 and total EGFR levels were measured by an electro chemiluminescent method (MULTI-SPOT®96 4-Spot HB Prototype EGFR Triplex […]: pEGFR (Y1068), Total EGFR; MESO SCALE DISCOVERY, Cat# N45ZB-1) with MSD SECTOR® Imager, which outputs the ratio of pEGFR/total EGFR for each well. pHER2^Y1248 and total HER2 levels were measured similarly using pHER2 (Y1248) Assay Whole Cell Lysate Kit (MESO SCALE DISCOVERY, Cat# K151CLD-3). The percentage of inhibition was calculated as: % Inhibition = 100 x [1 - (ratio of the sample well - ratio of Min ctrl well)/ (ratio of Max ctrl well - ratio of Min ctrl well)].
HER2, sequence (P04626 23-1255): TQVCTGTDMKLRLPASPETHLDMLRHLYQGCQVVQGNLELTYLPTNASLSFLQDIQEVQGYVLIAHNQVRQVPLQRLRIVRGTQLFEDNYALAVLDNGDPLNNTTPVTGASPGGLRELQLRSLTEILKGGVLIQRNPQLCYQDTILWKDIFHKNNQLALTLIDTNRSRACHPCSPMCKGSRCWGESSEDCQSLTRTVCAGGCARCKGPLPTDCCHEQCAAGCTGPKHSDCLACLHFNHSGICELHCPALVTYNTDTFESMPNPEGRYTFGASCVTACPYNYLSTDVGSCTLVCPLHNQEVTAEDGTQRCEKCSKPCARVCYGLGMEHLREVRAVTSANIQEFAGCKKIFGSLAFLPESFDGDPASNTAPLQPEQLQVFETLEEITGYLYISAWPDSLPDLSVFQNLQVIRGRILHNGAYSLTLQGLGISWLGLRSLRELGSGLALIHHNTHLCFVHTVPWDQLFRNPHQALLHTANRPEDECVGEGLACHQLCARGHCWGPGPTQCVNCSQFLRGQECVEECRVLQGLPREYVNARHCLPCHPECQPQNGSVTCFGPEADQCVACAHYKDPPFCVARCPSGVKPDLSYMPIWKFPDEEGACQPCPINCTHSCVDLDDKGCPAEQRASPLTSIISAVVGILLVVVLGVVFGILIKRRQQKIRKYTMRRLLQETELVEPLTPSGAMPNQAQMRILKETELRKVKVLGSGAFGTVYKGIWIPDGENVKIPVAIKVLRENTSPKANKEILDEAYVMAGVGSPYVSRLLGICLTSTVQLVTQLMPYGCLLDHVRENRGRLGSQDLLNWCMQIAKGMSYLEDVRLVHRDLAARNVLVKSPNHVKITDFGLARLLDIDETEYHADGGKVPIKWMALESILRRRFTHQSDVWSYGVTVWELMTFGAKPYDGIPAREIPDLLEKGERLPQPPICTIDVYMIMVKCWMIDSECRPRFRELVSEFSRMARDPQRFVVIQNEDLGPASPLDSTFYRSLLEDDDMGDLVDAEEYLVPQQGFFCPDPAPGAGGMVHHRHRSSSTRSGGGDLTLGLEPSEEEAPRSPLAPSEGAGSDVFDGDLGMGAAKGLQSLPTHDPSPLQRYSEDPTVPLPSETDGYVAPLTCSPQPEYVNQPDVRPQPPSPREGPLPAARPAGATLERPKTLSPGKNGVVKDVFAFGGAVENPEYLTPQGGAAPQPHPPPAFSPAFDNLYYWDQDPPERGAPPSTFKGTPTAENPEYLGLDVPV

For data set [2], the system named is BT474C1 cells. The experiment in a line: Cell proliferation assay (CellTiter-Glo), BT474C1. Type of data set: cell-based, human. The settings on record: BT474C1, 72 hrs. The method, then:
BT474C1-Luci Mono1 cells were seeded in 384-well plates at 1500 cells/well in DMEM medium containing 10% FBS and 1 mM Oxaloacetic acid (OAA). A431 cells were seeded in 384-well plates at 1,000 cells/well in DMEM medium containing 10% FBS. After overnight incubation, cells were treated with compounds at various concentrations for 3 days. Then cell viability was measured using a CellTiter-Glo Luminescent Cell Viability Assay from Promega Corp. according to the manufacturer's instructions.
(In general: ATP-based viability assays read luminescence as a measure of living cells.)

In data set [3] the target is T1, wild-type EGFR (Homo sapiens, UniProt P00533).
T1 construct: endogenous in cells; host or cells: A431
T1 sequence (P00533 25-1210): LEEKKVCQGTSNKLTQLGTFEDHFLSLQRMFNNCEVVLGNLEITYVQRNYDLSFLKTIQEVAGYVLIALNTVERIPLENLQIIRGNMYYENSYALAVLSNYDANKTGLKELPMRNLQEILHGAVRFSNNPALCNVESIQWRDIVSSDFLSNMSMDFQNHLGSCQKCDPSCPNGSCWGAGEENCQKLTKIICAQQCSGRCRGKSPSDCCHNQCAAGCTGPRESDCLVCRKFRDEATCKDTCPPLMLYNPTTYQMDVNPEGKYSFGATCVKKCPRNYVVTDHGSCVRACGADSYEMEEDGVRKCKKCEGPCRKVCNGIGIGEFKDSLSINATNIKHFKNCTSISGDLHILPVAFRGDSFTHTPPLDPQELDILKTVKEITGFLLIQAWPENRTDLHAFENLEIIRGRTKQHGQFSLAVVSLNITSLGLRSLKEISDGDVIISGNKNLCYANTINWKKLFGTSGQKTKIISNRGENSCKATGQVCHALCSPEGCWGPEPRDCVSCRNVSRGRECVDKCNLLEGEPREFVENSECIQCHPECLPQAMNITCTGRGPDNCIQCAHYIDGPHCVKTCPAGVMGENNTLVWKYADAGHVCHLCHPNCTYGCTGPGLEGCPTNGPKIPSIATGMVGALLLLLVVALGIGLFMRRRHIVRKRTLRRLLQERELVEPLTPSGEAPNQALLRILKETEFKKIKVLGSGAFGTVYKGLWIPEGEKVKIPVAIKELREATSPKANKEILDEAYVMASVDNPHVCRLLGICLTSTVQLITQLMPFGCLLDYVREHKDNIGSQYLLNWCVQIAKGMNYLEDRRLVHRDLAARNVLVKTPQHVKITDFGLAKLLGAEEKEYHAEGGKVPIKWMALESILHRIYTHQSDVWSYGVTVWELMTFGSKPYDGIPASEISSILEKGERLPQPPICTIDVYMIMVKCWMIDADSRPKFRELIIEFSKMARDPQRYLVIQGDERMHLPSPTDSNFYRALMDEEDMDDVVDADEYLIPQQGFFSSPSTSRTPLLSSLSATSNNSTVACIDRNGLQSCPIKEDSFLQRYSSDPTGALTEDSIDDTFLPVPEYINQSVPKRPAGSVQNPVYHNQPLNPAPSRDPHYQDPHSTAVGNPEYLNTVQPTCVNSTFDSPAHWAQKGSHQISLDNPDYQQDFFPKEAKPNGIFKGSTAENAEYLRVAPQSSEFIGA
Kind of data set: pEGFR MSD assay in A431 cells. Type of data set: cell-based. The conditions noted are these: A431, 4 hrs treatment, EGF stimulation. The method, then: as §1

Data set [4] has as its target T2, P-gp (MDR1) (Homo sapiens, UniProt P08183).
T2 construct: expressed in transfected cells; host or cells: MDCKII-MDR1
Kind of data set: P-gp efflux ratio, bi-directional transport assay. Type of data set: in vitro ADME. The source says: Passive permeability (Papp) characterizes the rate across the cell membrane due to passive diffusion. A high permeability enables the rapid establishment of equilibrium among plasma, CSF, and brain compartments. Except for passive permeability, sufficient unbound drug concentration in the brain is governed by efflux transporters, including P-gp (MDR1, ABCB1) and BCRP, at BBB. Efflux ratio (ER) reflects the liability of a compound to be pumped out of the brain by BBB efflux transporters, which is indicated by the distribution disequilibrium between the plasma and the brain compartments.
[…] The adjusted efflux ratio was used to determine if DZD1516/DZ2678 underwent active efflux. Verapamil, a P-glycoprotein (P-gp) inhibitor, was used to identify if any active transport processes were mediated through P-gp. The apical-to-basolateral (A-B) and basolateral-to-apical (B-A) transport of DZD1516/DZ2678 in HBSS (25 mM HEPES, pH 7.4) with 0.1% BSA was measured across MDCKII-MDR1 cell monolayers in the absence and presence of the P-gp inhibitor, verapamil (100 μM). The apical-to-basolateral (A-B) and basolateral-to-apical (B-A) transport of DZD1516/DZ2678 in HBSS (25 mM HEPES, pH 7.4) with 0.1% BSA was also measured across MDCKII cell monolayers in the absence and presence of the P-gp inhibitor, verapamil. Incubations were performed at approximately 37°C for 120 min, with the functionality of the test system being confirmed using 5 μM digoxin as a positive control substrate. […] determined by quantifying substrate concentration in the incubation medium of the donor compartment at the beginning of the incubation period and both donor and receiver compartments at the end of the incubation period. The data was used to calculate the apparent permeability (Papp). All incubations were performed in triplicate, and the integrity of the cell monolayers was confirmed using the marker Lucifer yellow.

Data set [5] can be described thus: Human hepatocyte intrinsic clearance. Type of data set: in vitro ADME. The conditions noted are these: human hepatocytes; for hepatocyte CLint: read-out: Human Heps Clint.
The subject of data set [6] is P-gp-BCRP. The experiment in a line: P-gp-BCRP efflux ratio, cellular transport assay. Type of data set: in vitro ADME, human. The settings on record: human, not told; 1 µM. The method, then:
A discussion of the structure–activity relationship (SAR) cumulated in the design of DZD1516 (Fig. 1) is as follows. The HER2 inhibitory potency screening for SAR development was performed using HER2 and EGFR enzymatic assays. The cellular activity was evaluated in HER2+ cell line BT474C1 by measuring pHER2 and antiproliferation activities. Cellular transport assays measuring the permeability and efflux ratio of compounds in cells expressing human P-gp (MDR1) and BCRP were used to provide essential information for assessing their BBB penetration potential.

In general, IC50 refers to the concentration needed to halve the response being measured. As a reminder, the GI50 is the concentration giving 50% growth inhibition. For orientation: efflux ratio means the permeability from basolateral to apical divided by that in the opposite direction, in the common usage.

T2 sequence (P08183 whole entry): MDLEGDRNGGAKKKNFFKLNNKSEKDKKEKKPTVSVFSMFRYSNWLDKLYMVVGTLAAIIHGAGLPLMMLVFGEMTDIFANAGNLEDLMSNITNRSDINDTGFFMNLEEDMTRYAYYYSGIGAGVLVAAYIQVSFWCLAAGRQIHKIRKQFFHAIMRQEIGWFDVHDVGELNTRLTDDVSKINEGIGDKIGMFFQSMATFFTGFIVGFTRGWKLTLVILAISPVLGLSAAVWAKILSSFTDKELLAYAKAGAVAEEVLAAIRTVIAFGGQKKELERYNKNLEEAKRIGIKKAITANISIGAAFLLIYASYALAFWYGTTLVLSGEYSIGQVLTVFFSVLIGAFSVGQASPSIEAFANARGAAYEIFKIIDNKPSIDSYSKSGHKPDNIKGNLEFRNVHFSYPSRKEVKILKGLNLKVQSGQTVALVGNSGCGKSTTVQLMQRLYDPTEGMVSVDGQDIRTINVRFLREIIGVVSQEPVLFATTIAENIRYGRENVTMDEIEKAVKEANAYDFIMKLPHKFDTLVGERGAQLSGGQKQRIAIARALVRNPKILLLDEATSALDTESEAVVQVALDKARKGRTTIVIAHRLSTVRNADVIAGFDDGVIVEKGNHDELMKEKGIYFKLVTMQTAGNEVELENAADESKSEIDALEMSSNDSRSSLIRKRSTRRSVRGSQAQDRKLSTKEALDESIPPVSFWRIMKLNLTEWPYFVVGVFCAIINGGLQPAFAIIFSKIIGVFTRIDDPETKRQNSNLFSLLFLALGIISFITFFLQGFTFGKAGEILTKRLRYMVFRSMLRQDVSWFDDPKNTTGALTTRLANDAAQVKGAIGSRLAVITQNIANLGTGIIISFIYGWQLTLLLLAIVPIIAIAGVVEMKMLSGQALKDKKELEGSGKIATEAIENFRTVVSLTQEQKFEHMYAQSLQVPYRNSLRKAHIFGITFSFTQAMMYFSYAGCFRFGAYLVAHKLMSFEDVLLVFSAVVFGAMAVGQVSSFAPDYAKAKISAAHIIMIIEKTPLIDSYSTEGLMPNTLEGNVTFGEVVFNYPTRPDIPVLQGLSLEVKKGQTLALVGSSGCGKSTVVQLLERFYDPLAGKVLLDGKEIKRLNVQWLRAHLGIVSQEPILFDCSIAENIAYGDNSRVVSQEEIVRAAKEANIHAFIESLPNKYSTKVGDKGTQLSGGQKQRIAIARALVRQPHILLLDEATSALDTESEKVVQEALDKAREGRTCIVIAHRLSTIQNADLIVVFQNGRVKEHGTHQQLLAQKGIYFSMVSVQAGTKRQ

Take `Cc1cc(Nc2ncnc3cccc(OC4CCN(C)CC4)c23)ccc1Oc1ccn2ncnc2c1` [Cpd-1]: the IC50 in data set [1] was 18 nM; in data set [3], above 10000 nM. Also, the 50% growth inhibitory concentration (GI50) in data set [2] came out at 91 nM. Besides, the “Efflux ratio P-gp @1 µM” value in data set [4] was 1.5.
As to `CCOc1cc2ncc(C#N)c(Nc3ccc(OCc4ccccn4)c(Cl)c3)c2cc1NC(=O)/C=C/[C@H]1CCCN1C` [Pyrotinib, reference compound], the IC50 in data set [1] came to 0.66 nM. In data set [2] (Homo sapiens), this molecule registered a GI50 of 0.7 nM.
In the case of `CCOc1cc2ncc(C#N)c(Nc3ccc(OCc4ccccn4)c(Cl)c3)c2cc1NC(=O)/C=C/CN(C)C` [Neratinib, reference compound], the hepatocyte CLint in data set [5] turned out to be 7.7 µL/min/1e6 cells. The GI50 in data set [2] (Homo sapiens) came out at 1.3 nM.
For the molecule `Cc1cc(Nc2ncnc3ccc(NC4=NC(C)(C)CO4)cc23)ccc1Oc1ccn2ncnc2c1` [Tucatinib, reference compound], the IC50 in data set [1] stood at 1.7 nM; in data set [3] it was 2770 nM. Also, the hepatocyte CLint in data set [5] worked out at 12.5 µL/min/1e6 cells. For the same molecule, halving of growth in data set [2] (Homo sapiens) (GI50) required 10 nM. In data set [6], the efflux ratio at 1 µM was determined as 64. In addition, the efflux ratio at 120 min, 1 µM in data set [4] (human, MDCK-MDR1, pH 7.4) is 6.2.
`CS(=O)(=O)CCNCc1ccc(-c2ccc3ncnc(Nc4ccc(OCc5cccc(F)c5)c(Cl)c4)c3c2)o1` [Lapatinib] yielded a GI50 in data set [2] (Homo sapiens) of 13 nM.
`COc1cc(O[C@@H]2CCN(C)CC2(F)F)c2c(Nc3ccc(Oc4ccn5ncnc5c4)c(C)c3)ncnc2c1` [Cpd-4] had an IC50 in data set [1] of 44 nM. For the same molecule, the “Human Heps Clint” value in data set [5] is reported as 20.1 (µL/min)/(10^6 cells). Also, halving of growth in data set [2] (GI50) required 67 nM.
